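All cell lines were grown in 96-well plates and treated with compound for 48 hours. GI50 = concentration required for 50% inhibition of growth. The concentration for full growth arrest is given as TGI.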
Legend:
Experiment in all cases: inhibition of tumour cell growth, NCI panel, 48 h; in the data active = GI50 below about 0.43 µM; inactive = the rest
A498 renal = system: A498 renal
HCT-15 colon = system: HCT-15 colon
HCT-116 colon = system: HCT-116 colon
SK-MEL-5 melanoma = system: SK-MEL-5 melanoma
BT-549 breast = system: BT-549 breast
RXF 393 renal = system: RXF 393 renal
NCI/ADR-RES ovarian = system: NCI/ADR-RES ovarian
OVCAR-8 ovarian = system: OVCAR-8 ovarian
HT29 colon = system: HT29 colon
MCF7 breast = system: MCF7 breast
DU-145 prostate = system: DU-145 prostate
SK-OV-3 ovarian = system: SK-OV-3 ovarian
MOLT-4 leukemia = system: MOLT-4 leukemia
HCC-2998 colon = system: HCC-2998 colon
CCRF-CEM leukemia = system: CCRF-CEM leukemia
NCI-H460 lung = system: NCI-H460 lung
SF-268 CNS = system: SF-268 CNS
SNB-19 CNS = system: SNB-19 CNS
RPMI-8226 leukemia = system: RPMI-8226 leukemia
SK-MEL-2 melanoma = system: SK-MEL-2 melanoma
LOX IMVI melanoma = system: LOX IMVI melanoma
NCI-H23 lung = system: NCI-H23 lung
PC-3 prostate = system: PC-3 prostate
OVCAR-5 ovarian = system: OVCAR-5 ovarian
U251 CNS = system: U251 CNS
EKVX NSCLC = system: EKVX NSCLC
SR leukemia = system: SR leukemia
786-0 renal = system: 786-0 renal
COLO 205 colon = system: COLO 205 colon
UO-31 renal = system: UO-31 renal
SF-295 CNS = system: SF-295 CNS
SW-620 colon = system: SW-620 colon
TK-10 renal = system: TK-10 renal
HOP-62 NSCLC = system: HOP-62 NSCLC
M14 melanoma = system: M14 melanoma
SF-539 CNS = system: SF-539 CNS
K-562 leukemia = system: K-562 leukemia
SN12C renal = system: SN12C renal
MDA-MB-435 = system: MDA-MB-435
MDA-MB-231 breast = system: MDA-MB-231 breast
T-47D breast = system: T-47D breast
NCI-H226 lung = system: NCI-H226 lung
ACHN renal = system: ACHN renal
HL-60(TB) leukemia = system: HL-60(TB) leukemia
IGROV1 ovarian = system: IGROV1 ovarian
HOP-92 NSCLC = system: HOP-92 NSCLC
KM12 colon = system: KM12 colon
UACC-62 melanoma = system: UACC-62 melanoma
OVCAR-3 ovarian = system: OVCAR-3 ovarian
HS 578T breast = system: HS 578T breast
SNB-75 CNS = system: SNB-75 CNS
SK-MEL-28 melanoma = system: SK-MEL-28 melanoma
NCI-H522 lung = system: NCI-H522 lung
OVCAR-4 ovarian = system: OVCAR-4 ovarian
CAKI-1 renal = system: CAKI-1 renal
A549 NSCLC = system: A549 NSCLC

COc1ccc(-c2nnc3n(C)c(=O)c4ccccc4n23)cc1O
1.98 µM: TGI (NCI-H522 lung)
28 µM: TGI (786-0 renal)
> 64.9 µM: TGI (SNB-19 CNS)
> 50.3 µM: TGI (HCT-116 colon)
32.9 µM: TGI (SK-OV-3 ovarian)
35.9 µM: TGI (HS 578T breast)
> 100 µM: TGI (HCT-15 colon) | TGI (SK-MEL-5 melanoma) | TGI (BT-549 breast) | TGI (OVCAR-8 ovarian) | TGI (MCF7 breast) | TGI (DU-145 prostate) | TGI (MOLT-4 leukemia) | TGI (CCRF-CEM leukemia) | TGI (NCI-H460 lung) | TGI (SF-268 CNS) | TGI (RPMI-8226 leukemia) | TGI (LOX IMVI melanoma) | TGI (NCI-H23 lung) | TGI (PC-3 prostate) | TGI (OVCAR-5 ovarian) | TGI (EKVX NSCLC) | TGI (SR leukemia) | TGI (UO-31 renal) | TGI (SW-620 colon) | TGI (TK-10 renal) | TGI (K-562 leukemia) | TGI (SN12C renal) | TGI (T-47D breast) | TGI (NCI-H226 lung) | TGI (ACHN renal) | TGI (KM12 colon) | TGI (SK-MEL-28 melanoma) | TGI (OVCAR-4 ovarian) | TGI (CAKI-1 renal) | TGI (A549 NSCLC)
6.68 µM: TGI (SF-539 CNS)
19.8 µM: TGI (HOP-62 NSCLC)
> 86.3 µM: TGI (IGROV1 ovarian)
13 µM: TGI (SF-295 CNS)
43.6 µM: TGI (HT29 colon)
31.7 µM: TGI (MDA-MB-231 breast)
1.32 µM: TGI (HL-60(TB) leukemia)
25.9 µM: TGI (M14 melanoma)
37.5 µM: TGI (SK-MEL-2 melanoma)
27.1 µM: TGI (UACC-62 melanoma)
12.7 µM: TGI (OVCAR-3 ovarian)
inactive: GI50 (A498 renal) 6.42 µM | GI50 (BT-549 breast) 2.91 µM | GI50 (RXF 393 renal) 0.758 µM | GI50 (OVCAR-8 ovarian) 1.52 µM | GI50 (HT29 colon) 3.94 µM | GI50 (DU-145 prostate) 2.22 µM | GI50 (SK-OV-3 ovarian) 1.12 µM | GI50 (MOLT-4 leukemia) 1.17 µM | GI50 (HCC-2998 colon) 2.98 µM | GI50 (CCRF-CEM leukemia) 1.81 µM | GI50 (SF-268 CNS) 5.29 µM | GI50 (SNB-19 CNS) 0.862 µM | GI50 (RPMI-8226 leukemia) 5.01 µM | GI50 (LOX IMVI melanoma) 1.25 µM | GI50 (NCI-H23 lung) 3.01 µM | GI50 (PC-3 prostate) 0.611 µM | GI50 (OVCAR-5 ovarian) 15.8 µM | GI50 (EKVX NSCLC) 14.1 µM | GI50 (786-0 renal) 2.57 µM | GI50 (COLO 205 colon) 3.36 µM | GI50 (UO-31 renal) 2.13 µM | GI50 (SF-295 CNS) 1.05 µM | GI50 (TK-10 renal) 6.8 µM | GI50 (SF-539 CNS) 0.596 µM | GI50 (SN12C renal) 1.47 µM | GI50 (MDA-MB-231 breast) 2.29 µM | GI50 (T-47D breast) 2.41 µM | GI50 (NCI-H226 lung) 16.9 µM | GI50 (ACHN renal) 1.15 µM | GI50 (IGROV1 ovarian) 2.69 µM | GI50 (HOP-92 NSCLC) 1.31 µM | GI50 (UACC-62 melanoma) 0.441 µM | GI50 (HS 578T breast) 0.964 µM | GI50 (SK-MEL-28 melanoma) 12.2 µM | GI50 (OVCAR-4 ovarian) 4.32 µM | GI50 (CAKI-1 renal) 1.06 µM | GI50 (A549 NSCLC) 2.29 µM
0.221 µM: TGI (MDA-MB-435)
20.8 µM: TGI (U251 CNS)
97.9 µM: TGI (HCC-2998 colon)
61.5 µM: TGI (HOP-92 NSCLC)
6.21 µM: TGI (RXF 393 renal)
33.9 µM: TGI (NCI/ADR-RES ovarian)
27.6 µM: TGI (SNB-75 CNS)
active: GI50 (HCT-15 colon) 0.153 µM | GI50 (HCT-116 colon) 0.161 µM | GI50 (SK-MEL-5 melanoma) 0.15 µM | GI50 (NCI/ADR-RES ovarian) 0.154 µM | GI50 (MCF7 breast) 0.13 µM | GI50 (NCI-H460 lung) 0.172 µM | GI50 (SK-MEL-2 melanoma) 0.14 µM | GI50 (U251 CNS) 0.263 µM | GI50 (SR leukemia) 0.1 µM | GI50 (SW-620 colon) 0.149 µM | GI50 (HOP-62 NSCLC) 0.176 µM | GI50 (M14 melanoma) 0.127 µM | GI50 (K-562 leukemia) 0.135 µM | GI50 (MDA-MB-435) 0.065 µM | GI50 (HL-60(TB) leukemia) 0.13 µM | GI50 (KM12 colon) 0.152 µM | GI50 (OVCAR-3 ovarian) 0.162 µM | GI50 (SNB-75 CNS) 0.161 µM | GI50 (NCI-H522 lung) 0.0827 µM
21.1 µM: TGI (COLO 205 colon)
36.6 µM: TGI (A498 renal)
